From article PMC6611044, “Pharmacokinetic analysis of new synthetic antimalarial N-251” (Tropical Medicine and Health, 2019)
Values after ≈ are worked out from the molar mass of the structure shown. Like-named read-outs stand apart in the source and are kept apart here.

Columns and labels:
[1] = PK analysis after p.o. administration of N-251 in fasted mice; type: in vivo; conditions: for AUC: 0 to infinity
Method: To analyze the absorption kinetics of N-251, it was orally administered to fasted mice with dose of 210, 100, 68, 50, and 30 mg/kg. Blood sample was collected at 15 and 30 min as well as 1, 1.5, 2, 3, 4, and 6 h post-dose. Data were expressed as the mean (n = 6) ± SD. AUC and MRT after p.o. administration in fasting mice were calculated based on the trapezoidal rule. F was calculated with an AUC of 10 mg/kg of i.v. dose. The highest observed concentration was used as Cmax, and the time for Cmax was defined as Tmax.

Solubility = type: physicochemical; conditions: water
[2] = system: P. falciparum (FCR-3 strain); design: method as in PMID 21501696; conditions: P. falciparum FCR-3 strain in vitro, cited from earlier work
[3] = male, ICR, mouse, plasma, po, p.o. 30 mg/kg
[4] = male, ICR, mouse, plasma, po, p.o. 50 mg/kg
[5] = male, ICR, mouse, plasma, po, p.o. 68 mg/kg
[6] = male, ICR, mouse, plasma, po, p.o. 100 mg/kg
[7] = male, ICR, mouse, plasma, po, p.o. 210 mg/kg

Question: Which Tmax ([1]; ICR, mouse, plasma, po, every group of dose (30-210 mg/kg)) does the source give for `OCCCCCCC1COOC2(CCCCCCCCCCC2)OOC1` [N-251, 6-(1,2,6,7-tetraoxaspiro [7.11]nonadec-4-yl)hexan-1-ol] here?
Answer: 2 h

Question: And the bioavailability ([1]; ICR, mouse, plasma, po, p.o. administration, over doses 30-210 mg/kg, read-out: bioavailability (F))?
Answer: ~23%

Question: What about the Cmax [1, 3] of the same compound?
Answer: 634 ± 129 ng/mL

Question: What about the Tmax [1, 3] of the same compound?
Answer: 2 h

Question: And the AUC [1, 3]?
Answer: 1570 ng·h/mL

Question: And the Cmax [1, 4]?
Answer: 1360 ± 799 ng/mL

Question: What about the Tmax [1, 4] of the same compound?
Answer: 2 h

Question: What about the AUC [1, 4] of the same compound?
Answer: 2570 ng·h/mL

Question: What about the Cmax [1, 5] of the same compound?
Answer: 1680 ± 811 ng/mL

Question: What about the Tmax [1, 5] of the same compound?
Answer: 2 h

Question: And the AUC [1, 5]?
Answer: 3770 ng·h/mL

Question: And the Cmax [1, 6]?
Answer: 2460 ± 802 ng/mL

Question: And the Tmax [1, 6]?
Answer: 2 h

Question: And the AUC [1, 6]?
Answer: 5890 ng·h/mL

Question: And the Cmax [1, 7]?
Answer: 4890 ± 1190 ng/mL

Question: What about the Tmax [1, 7] of the same compound?
Answer: 2 h

Question: What about the AUC [1, 7] of the same compound?
Answer: 15200 ng·h/mL

Question: And the MRTpo ([1]; p.o. 30 mg/kg)?
Answer: 2.45 h

Question: What about the F ([1]; p.o. 30 mg/kg, vs AUC of 10 mg/kg i.v.) of the same compound?
Answer: 0.2156

Question: And the MRTpo ([1]; p.o. 50 mg/kg)?
Answer: 2.49 h

Question: What about the F ([1]; p.o. 50 mg/kg, vs AUC of 10 mg/kg i.v.) of the same compound?
Answer: 0.2110

Question: What about the MRTpo ([1]; p.o. 68 mg/kg) of the same compound?
Answer: 2.46 h

Question: What about the F ([1]; p.o. 68 mg/kg, vs AUC of 10 mg/kg i.v.) of the same compound?
Answer: 0.2277

Question: What about the MRTpo ([1]; p.o. 100 mg/kg) of the same compound?
Answer: 2.46 h

Question: What about the F ([1]; p.o. 100 mg/kg, vs AUC of 10 mg/kg i.v.) of the same compound?
Answer: 0.2419

Question: And the MRTpo ([1]; p.o. 210 mg/kg)?
Answer: 2.74 h

Question: And the F ([1]; p.o. 210 mg/kg, vs AUC of 10 mg/kg i.v.)?
Answer: 0.2982

Question: And the F ([1]; p.o. between 30 and 100 mg/kg)?
Answer: approximately 0.22

Question: And the solubility (Solubility)?
Answer: 7 µg/mL (≈ 18.8 µM)

Question: And the EC50 ([2]; equivalent of 8.6 ng/mL, read-out: EC50)?
Answer: 23 nM

Question: What about the EC50 [2] of the same compound?
Answer: 8.6 ng/mL
